# Source: patent publication US8962639B2, “Potassium channel modulators” (AbbVie Inc., priority 2009, dated 2015)
# Molecular target: T1, human KCNQ2 and KCNQ3 (Homo sapiens, UniProt O43525+O43526)
# T1 construct: expressed in transfected cells; host or cells: HEK293
# Assay: KCNQ 2/3 channel activation, thallium flux FLIPR assay (BTC-AM dye) in HEK293 cells
# Assay type: cell-based
# Settings: for Emax: HEK293, maximum response relative to response of retigabine at 10 μM set at 100%, read-out: Max response; for EC50: HEK293 cells stably expressing human KCNQ2 and KCNQ3, compound incubated 4 minutes, Tl+ flux fluorescence; for Max response: maximum response relative to response of retigabine at 10 μM set at 100%
# Experimental: The following example describes the assay that can be used to identify compounds that activate KCNQ 2/3 channels.
# HEK293 cells stably expressing human KCNQ2 and KCNQ3 were seeded in 96-well, black-walled, clear-bottomed, poly-D-lysine coated plates (BD Biosciences, Bedford, Mass.) at a density of 1×10^5 cells per well 24 hours before the assay. On the assay day, BTC-AM dye (Invitrogen, Carlsbad, Calif.) was loaded into the cells by replacing the cell culture medium with 100 μL/well of 4 μM dye in DPBS. Dye loading was allowed to proceed for 2 hours at room temperature and then cells were washed twice in 100 μL/well of assay buffer (in mM: 10 HEPES pH 7.3, 5 glucose, 140 Na-gluconate, 2.5 K-gluconate, 3.6 Ca-gluconate, 2 MgSO4, 0.1 Ouabain) to remove unloaded dye. Cells were incubated in 50 μL of assay buffer before loading onto a FLIPR system (Molecular Devices, Sunnyvale, Calif.). Various concentrations of compounds to be assayed were added to the cells in 50 μL of assay buffer and incubated for 4 minutes. The fluorescence signal was initiated by adding 100 μL of assay buffer containing 6 mM TlNO3 and 10 mM K2SO4. Fluors were excited using the 488-nm line of an argon laser and emission was filtered using a 540±30 nm bandpass filter. Fluorescent signals were recorded for 3 minutes. Responses over baseline values were plotted versus concentrations of test compounds to obtain an EC50 value. The maximum response for each test compound was determined relative to the response produced at 10 μM by retigabine. The maximum response of retigabine at 10 μM was set at 100%.
# T1 sequence (O43526 whole entry): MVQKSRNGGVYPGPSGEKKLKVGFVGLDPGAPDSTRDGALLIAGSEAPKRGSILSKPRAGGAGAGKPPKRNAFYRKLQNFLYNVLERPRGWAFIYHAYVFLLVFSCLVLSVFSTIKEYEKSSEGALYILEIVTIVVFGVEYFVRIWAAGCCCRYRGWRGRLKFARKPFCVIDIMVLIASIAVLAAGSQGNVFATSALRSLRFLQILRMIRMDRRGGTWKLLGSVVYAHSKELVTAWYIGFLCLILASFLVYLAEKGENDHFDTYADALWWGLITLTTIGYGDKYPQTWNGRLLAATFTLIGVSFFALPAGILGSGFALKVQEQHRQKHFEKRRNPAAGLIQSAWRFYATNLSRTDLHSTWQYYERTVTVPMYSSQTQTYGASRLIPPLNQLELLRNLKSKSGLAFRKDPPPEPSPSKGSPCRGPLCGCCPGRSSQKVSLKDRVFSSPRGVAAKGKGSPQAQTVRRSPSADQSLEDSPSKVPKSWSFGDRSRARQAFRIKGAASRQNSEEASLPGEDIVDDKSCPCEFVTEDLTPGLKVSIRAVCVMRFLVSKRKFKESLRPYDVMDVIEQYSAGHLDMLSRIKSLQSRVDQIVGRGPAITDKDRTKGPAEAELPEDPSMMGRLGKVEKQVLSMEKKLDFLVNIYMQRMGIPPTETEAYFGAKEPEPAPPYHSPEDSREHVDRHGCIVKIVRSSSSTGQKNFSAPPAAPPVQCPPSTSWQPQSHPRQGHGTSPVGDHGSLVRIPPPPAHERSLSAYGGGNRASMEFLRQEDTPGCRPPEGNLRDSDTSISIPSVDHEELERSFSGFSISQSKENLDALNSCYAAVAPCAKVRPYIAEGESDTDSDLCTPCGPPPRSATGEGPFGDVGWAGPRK
# T1 sequence (O43525 whole entry): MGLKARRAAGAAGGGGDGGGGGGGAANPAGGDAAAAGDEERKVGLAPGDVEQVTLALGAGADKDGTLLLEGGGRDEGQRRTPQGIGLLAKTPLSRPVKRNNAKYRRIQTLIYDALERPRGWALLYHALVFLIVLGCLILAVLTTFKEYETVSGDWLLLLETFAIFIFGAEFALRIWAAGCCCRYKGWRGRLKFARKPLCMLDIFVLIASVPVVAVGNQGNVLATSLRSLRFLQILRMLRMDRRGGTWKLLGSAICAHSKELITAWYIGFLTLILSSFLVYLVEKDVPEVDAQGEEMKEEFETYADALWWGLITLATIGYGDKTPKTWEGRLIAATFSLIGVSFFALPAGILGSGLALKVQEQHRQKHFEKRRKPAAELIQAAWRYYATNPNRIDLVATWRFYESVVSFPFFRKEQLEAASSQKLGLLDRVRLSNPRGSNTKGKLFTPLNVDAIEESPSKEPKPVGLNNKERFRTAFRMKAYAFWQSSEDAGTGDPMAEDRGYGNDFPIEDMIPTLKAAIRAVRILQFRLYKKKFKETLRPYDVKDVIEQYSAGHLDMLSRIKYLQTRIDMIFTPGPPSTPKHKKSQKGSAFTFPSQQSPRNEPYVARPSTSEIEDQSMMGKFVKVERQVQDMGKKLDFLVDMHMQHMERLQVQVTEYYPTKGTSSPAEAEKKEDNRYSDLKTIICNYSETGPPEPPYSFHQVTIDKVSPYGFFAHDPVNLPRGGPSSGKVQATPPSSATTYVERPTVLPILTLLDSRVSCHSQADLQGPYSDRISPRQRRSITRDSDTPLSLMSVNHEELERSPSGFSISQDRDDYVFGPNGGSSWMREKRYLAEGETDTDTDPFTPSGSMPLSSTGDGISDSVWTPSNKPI
SMILES,Emax [%],EC50 [nM],Max response [%]
"O=C(CC12CC3CC(CC(Cl)(C3)C1)C2)Nn1c(C2CC2)nc2cc(C(F)(F)F)ccc2c1=O [Example 50, 2-[3-chloro-1-adamantyl]-N-[2-cyclopropyl-4-oxo-7-(trifluoromethyl)quinazolin-3(4H)-yl]acetamide]",-0.535,> 31600,
"O=C(C[C@@H]1C[C@@H]2C=C[C@H]1C2)Nn1c(-c2ccccc2)nc2ccccc2c1=O (racemic) [Example 19, (±)-endo-2-bicyclo[2.2.1]hept-5-en-2-yl-N-(4-oxo-2-phenylquinazolin-3(4H)-yl)acetamide]",130,2280,
"O=C(CC12CC3CC(CC(C3)C1)C2)Nn1cnc2ccsc2c1=O [Example 26, 2-(1-adamantyl)-N-(4-oxothieno[3,2-d]pyrimidin-3(4H)-yl)acetamide]",140,2680,
"CC(C)c1nc2ccccc2c(=O)n1NC(=O)CC1CC2C=CC1C2 (racemic) [Example 18, (±)-endo-2-bicyclo[2.2.1]hept-5-en-2-yl-N-(2-isopropyl-4-oxoquinazolin-3(4H)-yl)acetamide]",163,747,
"CC(C)c1nc2ccccc2c(=O)n1NC(=O)CC1C2CCCC1CCC2 (stereo not shown) [Example 56, 2-bicyclo[3.3.1]non-9-yl-N-(2-isopropyl-4-oxoquinazolin-3(4H)-yl)acetamide]",158,104,
"O=C(Nn1c(-c2ccccc2)nc2ccccc2c1=O)[C@@H]1C[C@@H]2C=C[C@H]1C2 (racemic) [Example 33, (±)-(endo)-N-(4-oxo-2-phenylquinazolin-3(4H)-yl)bicyclo[2.2.1]hept-5-ene-2-carboxamide]",65.4,840,
"O=C(CCC1CCCC1)Nn1c(C23CC4CC(CC2C4)C3)nc2ccccc2c1=O [Example 3, 3-cyclopentyl-N-(2-hexahydro-2,5-methanopentalen-3a(1H)-yl-4-oxoquinazolin-3(4H)-yl)propanamide]",171,277,
"CCc1nc2sccc2c(=O)n1NC(=O)CC12CC3CC(CC(Cl)(C3)C1)C2 [Example 52, 2-[3-chloro-1-adamantyl]-N-(2-ethyl-4-oxothieno[2,3-d]pyrimidin-3(4H)-yl)acetamide]",109,7910,
"CC(C)c1nc2ccccc2c(=O)n1NC(=O)[C@@H]1[C@H]2[C@@H]3CC[C@@H](C3)[C@@H]12 [Example 59, (exo,exo)-N-(2-isopropyl-4-oxoquinazolin-3(4H)-yl)tricyclo[3.2.1.0^2,4]octane-3-carboxamide]",16.5,> 31600,
CC(C)c1nc2ccccc2c(=O)n1NC(=O)C[C@@H]1C[C@@H]2CC(=O)C[C@@H](C2)C1 [Example 60],58,> 31600,
"CCc1nc2ccccc2c(=O)n1NC(=O)C12CC3CC(CC(C3)O1)C2 [Example 54, N-(2-ethyl-4-oxoquinazolin-3(4H)-yl)-2-oxatricyclo[3.3.1.1^3,7]decane-1-carboxamide]",5.5,> 31600,
"O=C(Nn1c(-c2ccccc2)nc2ccccc2c1=O)[C@H]1C[C@@H]2C=C[C@H]1C2 (racemic) [Example 34, (±)-(exo)-N-(4-oxo-2-phenylquinazolin-3(4 H)-yl)bicyclo[2.2.1]hept-5-ene-2-carboxamide]",4.46,17300,
"CCc1nc2ccccc2c(=O)n1NC(=O)CC1CC2CCC1C2 (racemic) [Example 43, (±)-2-[(endo)-bicyclo[2.2.1]hept-2-yl]-N-(2-ethyl-4-oxoquinazolin-3(4 H)-yl)acetamide]",150,386,
"CCc1nc2sccc2c(=O)n1NC(=O)CC1CC2CCC1C2 (racemic) [Example 24, (±)-exo-2-bicyclo[2.2.1]hept-2-yl-N-(2-ethyl-4-oxothieno[2,3-d]pyrimidin-3(4H)-yl)acetamide]",158,1130,
"O=C(Nn1c(-c2ccccc2)nc2ccccc2c1=O)C1C2CC3CC(C2)CC1C3 (stereo not shown) [Example 38, N-(4-oxo-2-phenylquinazolin-3(4H)-yl)adamantane-2-carboxamide]",-43.5,> 30000,
"CC(C)c1nc2ccccc2c(=O)n1NC(=O)CC1CC2CCC1C2 (racemic) [Example 42, (±)-2-[(endo)-bicyclo[2.2.1]hept-2-yl]-N-(2-isopropyl-4-oxoquinazolin-3(4H)-yl)acetamide]",,86.8,150
"CC(C)c1nc2ccccc2c(=O)n1NC(=O)CC1CC2CCC1C2 (racemic) [Example 11, (±)-exo-2-bicyclo[2.2.1]hept-2-yl-N-(2-isopropyl-4-oxoquinazolin-3(4H)-yl)acetamide]",,90.6,175

# Results, then the molecule that gave them:
Emax [%],EC50 [nM],Max response [%],SMILES
130,454,,"Cc1sc2nc(C)n(NC(=O)CC34CC5CC(CC(C5)C3)C4)c(=O)c2c1-c1ccccc1 [Example 46, 2-(1-adamantyl)-N-(2,6-dimethyl-4-oxo-5-phenylthieno[2,3-d]pyrimidin-3(4H)-yl)acetamide]"
19.2,> 30000,,"CC(C)Sc1nc2sc(-c3ccccc3)cc2c(=O)n1NC(=O)CC12CC3CC(CC(C3)C1)C2 [Example 40, 2-(1-adamantyl)-N-[2-(isopropylthio)-4-oxo-6-phenylthieno[2,3-d]pyrimidin-3(4H)-yl]acetamide]"
93.3,1750,,"O=C(CC12CC3CC(CC(C3)C1)C2)Nn1c(=O)[nH]c2ccccc2c1=O [Example 28, 2-(1-adamantyl)-N-(2,4-dioxo-1,4-dihydroquinazolin-3(2H)-yl)acetamide]"
56.7,652,,"Cc1cc2c(=O)n(NC(=O)CC34CC5CC(CC(C5)C3)C4)c(C)nc2s1 [Example 47, 2-(1-adamantyl)-N-(2,6-dimethyl-4-oxothieno[2,3-d]pyrimidin-3(4H)-yl)acetamide]"
120,691,,"CCc1nc2sccc2c(=O)n1NC(=O)CC12CC3CC(CC(C3)C1)C2 [Example 14, 2-(1-adamantyl)-N-(2-ethyl-4-oxothieno[2,3-d]pyrimidin-3(4H)-yl)acetamide]"
103,341,,"O=C(CC12CC3CC(CC(C3)C1)C2)Nn1c(-c2ccccc2)nc2ccccc2c1=O [Example 6, 2-(1-adamantyl)-N-(4-oxo-2-phenylquinazolin-3(4H)-yl)acetamide]"
199,846,,"O=C(CC12CC3CC(CC(C3)C1)C2)Nn1cnc2scc(-c3ccc(F)cc3)c2c1=O [Example 27, 2-(1-adamantyl)-N-[5-(4-fluorophenyl)-4-oxothieno[2,3-d]pyrimidin-3(4H)-yl]acetamide]"
172,399,,"CC(C)c1nc2ccccc2c(=O)n1NC(=O)CCC12CC3CC(CC(C3)C1)C2 [Example 13, 3-(1-adamantyl)-N-(2-isopropyl-4-oxoquinazolin-3(4H)-yl)propanamide]"
61.1,2500,,"Cc1nc2sccc2c(=O)n1NC(=O)CC12CC3CC(CC(C3)C1)C2 [Example 17, 2-(1-adamantyl)-N-(2-methyl-4-oxothieno[2,3-d]pyrimidin-3(4H)-yl)acetamide]"
122,148,,"CC(C)c1nc2ccccc2c(=O)n1NC(=O)CC12CC3CC(CC(C3)C1)C2 [Example 5, 2-(1-adamantyl)-N-(2-isopropyl-4-oxoquinazolin-3(4H)-yl)acetamide]"
139,438,,"CCc1cc2c(=O)n(NC(=O)CC34CC5CC(CC(C5)C3)C4)cnc2s1 [Example 20, 2-(1-adamantyl)-N-(6-ethyl-4-oxothieno[2,3-d]pyrimidin-3(4H)-yl)acetamide]"
118,3010,,"O=C(CC12CC3CC(CC(C3)C1)C2)Nn1c(COc2ccccc2)nc2ccccc2c1=O [Example 25, 2-(1-adamantyl)-N-[4-oxo-2-(phenoxymethyl)quinazolin-3(4H)-yl]acetamide]"
